Measured values from PMC3382171 (PLoS ONE, 2012).

Experiments:
Experiment in all cases: biochemical
Design in all cases: Invitrogen SelectScreen kinase panel, percent inhibition at 1 uM, ATP at Km
Settings in all cases: read-out: Invitrogen KSS %Inh at 1 µM
[1] = biological target: LCK (Homo sapiens, UniProt P06239)
Procedure, shortened: (§1)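 Commercial kinase panel screens run with ATP at the Km for each kinase. Compounds tested at 1 µM final concentration; values are % inhibition of phosphorylation relative to control.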

[2] = biological target: RET (Homo sapiens, UniProt P07949)
Procedure, shortened: as §1

[3] = biological target: FGFR1 (Homo sapiens, UniProt P11362)
Procedure, shortened: as §1

[4] = biological target: HCK (Homo sapiens, UniProt P08631)
HCK, sequence (P08631 whole entry): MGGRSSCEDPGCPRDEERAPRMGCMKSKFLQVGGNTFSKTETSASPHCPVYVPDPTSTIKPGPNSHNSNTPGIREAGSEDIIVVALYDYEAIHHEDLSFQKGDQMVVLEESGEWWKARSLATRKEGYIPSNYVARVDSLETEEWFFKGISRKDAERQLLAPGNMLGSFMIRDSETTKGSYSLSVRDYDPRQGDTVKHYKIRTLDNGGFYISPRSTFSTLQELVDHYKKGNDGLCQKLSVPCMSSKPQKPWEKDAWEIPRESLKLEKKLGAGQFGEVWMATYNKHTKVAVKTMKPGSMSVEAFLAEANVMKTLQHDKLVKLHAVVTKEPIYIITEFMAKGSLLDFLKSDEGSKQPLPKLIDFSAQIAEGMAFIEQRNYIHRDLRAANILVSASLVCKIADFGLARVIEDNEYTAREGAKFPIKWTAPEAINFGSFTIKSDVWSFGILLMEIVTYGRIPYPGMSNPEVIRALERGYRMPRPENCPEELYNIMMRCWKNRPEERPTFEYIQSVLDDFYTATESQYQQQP
Procedure, shortened: as §1

[5] = biological target: T1, CDC42 BPB (MRCKB) (Homo sapiens, UniProt Q9Y5S2)
T1 construct: gene CDC42BPB
Procedure, shortened: as §1

[6] = biological target: FYN (Homo sapiens, UniProt P06241)
Procedure, shortened: as §1

[7] = biological target: FLT1 (VEGFR1) (Homo sapiens, UniProt P17948)
Procedure, shortened: as §1

[8] = biological target: CHEK2 (CHK2) (Homo sapiens, UniProt O96017)
Procedure, shortened: as §1

[9] = biological target: BTK (Homo sapiens, UniProt Q06187)
Procedure, shortened: as §1

[10] = biological target: CSNK1G1 (CK1 gamma 1) (Homo sapiens, UniProt Q9HCP0)
Procedure, shortened: as §1

[11] = biological target: CSK (Homo sapiens, UniProt P41240)
CSK, sequence (P41240 whole entry): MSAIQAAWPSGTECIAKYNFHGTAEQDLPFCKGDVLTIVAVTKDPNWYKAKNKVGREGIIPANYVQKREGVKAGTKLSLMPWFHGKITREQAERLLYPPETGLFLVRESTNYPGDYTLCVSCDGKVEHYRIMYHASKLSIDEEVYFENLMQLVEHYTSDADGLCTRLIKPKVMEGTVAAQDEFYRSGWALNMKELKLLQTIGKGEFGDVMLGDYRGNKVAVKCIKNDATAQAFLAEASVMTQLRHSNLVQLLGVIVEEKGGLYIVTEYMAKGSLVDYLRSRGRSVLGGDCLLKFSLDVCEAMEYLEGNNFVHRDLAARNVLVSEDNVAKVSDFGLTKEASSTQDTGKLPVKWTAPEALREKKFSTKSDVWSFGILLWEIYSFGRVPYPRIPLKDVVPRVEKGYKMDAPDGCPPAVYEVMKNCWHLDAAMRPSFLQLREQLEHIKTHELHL
Procedure, shortened: as §1

[12] = biological target: MAPK3 (ERK1) (Homo sapiens, UniProt P27361)
MAPK3 (ERK1), sequence (P27361 whole entry): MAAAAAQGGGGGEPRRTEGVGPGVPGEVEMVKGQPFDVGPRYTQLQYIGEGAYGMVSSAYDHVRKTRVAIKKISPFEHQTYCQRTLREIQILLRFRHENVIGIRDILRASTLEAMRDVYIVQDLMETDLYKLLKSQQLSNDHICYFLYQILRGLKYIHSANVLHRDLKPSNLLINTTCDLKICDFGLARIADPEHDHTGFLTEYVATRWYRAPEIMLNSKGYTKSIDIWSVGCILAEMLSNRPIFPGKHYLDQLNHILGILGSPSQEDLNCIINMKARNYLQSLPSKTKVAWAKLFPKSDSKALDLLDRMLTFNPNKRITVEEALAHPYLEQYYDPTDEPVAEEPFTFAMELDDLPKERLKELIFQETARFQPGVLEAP
Procedure, shortened: as §1

[13] = biological target: PAK2 (PAK65) (Homo sapiens, UniProt Q13177)
PAK2 (PAK65), sequence (Q13177 whole entry): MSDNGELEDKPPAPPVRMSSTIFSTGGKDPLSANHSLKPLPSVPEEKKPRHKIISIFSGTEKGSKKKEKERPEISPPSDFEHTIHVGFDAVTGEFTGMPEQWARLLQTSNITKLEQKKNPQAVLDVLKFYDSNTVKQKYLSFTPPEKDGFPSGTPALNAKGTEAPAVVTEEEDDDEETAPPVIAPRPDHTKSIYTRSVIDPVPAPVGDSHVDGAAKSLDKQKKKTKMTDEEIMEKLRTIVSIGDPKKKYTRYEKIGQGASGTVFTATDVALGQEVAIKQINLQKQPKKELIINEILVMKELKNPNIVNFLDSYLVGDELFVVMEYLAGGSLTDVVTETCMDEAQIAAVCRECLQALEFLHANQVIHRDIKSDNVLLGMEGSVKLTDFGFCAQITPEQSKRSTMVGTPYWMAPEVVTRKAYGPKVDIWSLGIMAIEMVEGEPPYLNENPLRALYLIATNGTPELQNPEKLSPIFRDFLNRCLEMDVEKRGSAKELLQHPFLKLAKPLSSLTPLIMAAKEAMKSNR
Procedure, shortened: as §1

[14] = biological target: EPHA2 (Homo sapiens, UniProt P29317)
Procedure, shortened: as §1

[15] = biological target: RPS6KA5 (MSK1) (Homo sapiens, UniProt O75582)
Procedure, shortened: as §1

[16] = biological target: MINK1 (Homo sapiens, UniProt Q8N4C8)
Procedure, shortened: as §1

[17] = biological target: ABL2 (Arg) (Homo sapiens, UniProt P42684)
ABL2 (Arg), sequence (P42684 whole entry): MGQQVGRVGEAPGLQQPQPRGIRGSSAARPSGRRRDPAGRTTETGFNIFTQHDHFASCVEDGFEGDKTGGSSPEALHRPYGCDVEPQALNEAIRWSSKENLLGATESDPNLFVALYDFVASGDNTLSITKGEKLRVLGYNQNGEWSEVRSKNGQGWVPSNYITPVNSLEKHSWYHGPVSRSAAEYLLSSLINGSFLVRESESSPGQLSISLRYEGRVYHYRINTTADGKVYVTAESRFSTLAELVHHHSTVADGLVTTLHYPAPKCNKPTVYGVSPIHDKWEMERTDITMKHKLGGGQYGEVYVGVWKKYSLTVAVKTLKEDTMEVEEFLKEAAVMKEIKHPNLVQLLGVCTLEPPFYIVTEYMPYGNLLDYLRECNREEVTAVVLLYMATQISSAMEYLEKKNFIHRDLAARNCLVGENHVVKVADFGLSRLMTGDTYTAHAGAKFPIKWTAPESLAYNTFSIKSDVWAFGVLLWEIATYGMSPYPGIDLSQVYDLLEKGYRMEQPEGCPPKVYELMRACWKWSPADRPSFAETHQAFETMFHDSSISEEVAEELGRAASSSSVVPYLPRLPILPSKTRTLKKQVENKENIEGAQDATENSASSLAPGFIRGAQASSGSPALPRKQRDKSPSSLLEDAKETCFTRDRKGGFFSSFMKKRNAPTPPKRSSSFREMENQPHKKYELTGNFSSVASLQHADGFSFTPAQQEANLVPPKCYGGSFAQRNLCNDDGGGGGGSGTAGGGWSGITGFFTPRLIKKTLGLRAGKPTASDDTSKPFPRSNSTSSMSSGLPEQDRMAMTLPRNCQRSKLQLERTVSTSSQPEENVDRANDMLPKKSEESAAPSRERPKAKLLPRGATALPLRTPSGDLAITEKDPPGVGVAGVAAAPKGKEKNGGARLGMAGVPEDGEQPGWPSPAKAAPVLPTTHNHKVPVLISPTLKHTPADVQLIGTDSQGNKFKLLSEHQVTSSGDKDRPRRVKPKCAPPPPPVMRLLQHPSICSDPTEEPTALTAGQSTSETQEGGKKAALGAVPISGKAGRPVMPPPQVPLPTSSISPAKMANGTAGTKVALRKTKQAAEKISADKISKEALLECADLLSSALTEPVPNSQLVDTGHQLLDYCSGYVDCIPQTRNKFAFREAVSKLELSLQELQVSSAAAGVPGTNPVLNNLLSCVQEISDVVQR
Procedure, shortened: as §1

[18] = biological target: JAK3 (Homo sapiens, UniProt P52333)
JAK3, sequence (P52333 whole entry): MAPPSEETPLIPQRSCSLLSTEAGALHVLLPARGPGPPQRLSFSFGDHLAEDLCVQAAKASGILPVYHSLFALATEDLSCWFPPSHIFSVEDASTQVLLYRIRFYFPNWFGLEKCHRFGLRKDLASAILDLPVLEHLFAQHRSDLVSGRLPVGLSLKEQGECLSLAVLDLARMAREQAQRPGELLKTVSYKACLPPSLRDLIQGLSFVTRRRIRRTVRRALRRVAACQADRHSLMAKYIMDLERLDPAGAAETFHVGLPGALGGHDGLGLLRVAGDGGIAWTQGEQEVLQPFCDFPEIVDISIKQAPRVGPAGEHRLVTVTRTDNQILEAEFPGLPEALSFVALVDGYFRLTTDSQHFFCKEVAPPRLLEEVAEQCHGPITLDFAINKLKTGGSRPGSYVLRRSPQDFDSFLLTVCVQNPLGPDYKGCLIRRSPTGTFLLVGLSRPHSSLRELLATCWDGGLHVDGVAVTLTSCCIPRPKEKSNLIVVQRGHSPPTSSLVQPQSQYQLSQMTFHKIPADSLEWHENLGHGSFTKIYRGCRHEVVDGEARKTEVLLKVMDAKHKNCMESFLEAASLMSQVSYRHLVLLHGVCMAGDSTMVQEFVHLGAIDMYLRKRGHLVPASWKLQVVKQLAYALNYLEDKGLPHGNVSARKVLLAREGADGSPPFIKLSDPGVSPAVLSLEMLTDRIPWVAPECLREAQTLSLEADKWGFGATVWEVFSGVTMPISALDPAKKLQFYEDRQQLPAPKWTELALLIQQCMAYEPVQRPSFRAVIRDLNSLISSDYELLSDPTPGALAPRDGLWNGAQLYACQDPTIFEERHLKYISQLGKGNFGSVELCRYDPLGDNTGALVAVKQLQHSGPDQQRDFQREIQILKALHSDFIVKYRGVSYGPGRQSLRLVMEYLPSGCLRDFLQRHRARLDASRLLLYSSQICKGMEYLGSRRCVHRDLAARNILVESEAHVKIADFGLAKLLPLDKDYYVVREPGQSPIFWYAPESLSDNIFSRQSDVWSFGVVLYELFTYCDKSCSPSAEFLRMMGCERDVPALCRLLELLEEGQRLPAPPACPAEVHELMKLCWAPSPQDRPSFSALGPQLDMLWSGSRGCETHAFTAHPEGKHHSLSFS
Procedure, shortened: as §1

[19] = biological target: PAK6 (Homo sapiens, UniProt Q9NQU5)
Procedure, shortened: as §1

[20] = biological target: MAPK1/ERK2 (Homo sapiens, UniProt P28482)
Procedure, shortened: as §1

[21] = biological target: PLK2 (Homo sapiens, UniProt Q9NYY3)
PLK2, sequence (Q9NYY3 whole entry): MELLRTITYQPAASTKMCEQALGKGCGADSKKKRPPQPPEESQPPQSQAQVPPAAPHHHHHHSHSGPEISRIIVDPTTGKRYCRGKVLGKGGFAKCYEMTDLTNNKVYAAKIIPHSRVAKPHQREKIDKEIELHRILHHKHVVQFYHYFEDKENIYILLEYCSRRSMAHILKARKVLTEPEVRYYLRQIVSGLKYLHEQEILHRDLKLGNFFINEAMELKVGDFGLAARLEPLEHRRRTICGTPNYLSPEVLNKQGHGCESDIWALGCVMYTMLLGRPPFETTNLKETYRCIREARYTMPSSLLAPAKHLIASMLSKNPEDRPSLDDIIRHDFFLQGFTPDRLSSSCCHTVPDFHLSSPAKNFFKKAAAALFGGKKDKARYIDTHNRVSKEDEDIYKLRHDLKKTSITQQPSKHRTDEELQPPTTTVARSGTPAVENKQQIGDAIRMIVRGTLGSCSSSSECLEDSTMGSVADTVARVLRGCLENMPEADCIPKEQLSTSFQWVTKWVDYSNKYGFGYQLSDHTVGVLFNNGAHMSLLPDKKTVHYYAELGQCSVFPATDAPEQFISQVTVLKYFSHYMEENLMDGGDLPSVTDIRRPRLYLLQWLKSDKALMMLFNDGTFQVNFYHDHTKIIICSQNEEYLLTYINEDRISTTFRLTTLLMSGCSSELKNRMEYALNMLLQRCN
Procedure, shortened: as §1

[22] = biological target: EGFR (ErbB1) L858R (Homo sapiens, UniProt P00533, L858R)
Procedure, shortened: as §1

N#CCCNc1nccc(-c2cn(CC(F)F)nc2-c2cnc3[nH]ccc3c2)n1 [RAFi, PF-04880594] gave an inhibition at 1 µM [1] of 15%, an inhibition at 1 µM [2] of 12% and an inhibition at 1 µM [3] of 1%. For the same molecule, the inhibition at 1 µM [4] was 5%, the inhibition at 1 µM [5] was 21% and the inhibition at 1 µM [6] was -4%. It also gave an inhibition at 1 µM [7] of 2%, an inhibition at 1 µM [8] of 7% and an inhibition at 1 µM [9] of -7%. It also gave an inhibition at 1 µM [10] of 0%, an inhibition at 1 µM [11] of 1% and an inhibition at 1 µM [12] of 28%. For the same molecule, the inhibition at 1 µM [13] was 3%, the inhibition at 1 µM [14] was -2% and the inhibition at 1 µM [15] was 3%. For the same molecule, the inhibition at 1 µM [16] was 8%, the inhibition at 1 µM [17] was -1% and the inhibition at 1 µM [18] was 9%. It also gave an inhibition at 1 µM [19] of 10%, an inhibition at 1 µM [20] of 14% and an inhibition at 1 µM [21] of 37%. It also gave an inhibition at 1 µM [22] of 6%.
